{"source": "patent US20260317356A1", "about": "“SMALL MOLECULE MODULATORS OF OGG1” (AZKARRA THERAPEUTICS, INC., priority 2023, published 2026)"}
{"target": "hOGG1 (Homo sapiens, UniProt O15527)", "sequence (O15527 12-323)": "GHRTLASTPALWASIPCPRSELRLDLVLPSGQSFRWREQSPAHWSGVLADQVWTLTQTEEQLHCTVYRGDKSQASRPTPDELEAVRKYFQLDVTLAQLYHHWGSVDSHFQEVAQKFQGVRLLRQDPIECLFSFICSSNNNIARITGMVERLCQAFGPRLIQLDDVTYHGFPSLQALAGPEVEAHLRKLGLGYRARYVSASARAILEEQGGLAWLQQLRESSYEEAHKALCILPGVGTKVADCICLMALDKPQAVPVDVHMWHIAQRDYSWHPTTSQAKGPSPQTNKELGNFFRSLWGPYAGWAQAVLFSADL", "experiment": "Biochemical fluorescence assay to measure enzymatic activity of hOGG1 (OGG1/APEX IC50)", "set-up": "Protein His-hOGG1 (12-323) was prepared; His (N); host or cells: E. coli", "settings": "1 nM OGG1+2 nM APEX+6 nM dsDNA (8-oxo-dG substrate); pH 7.5; RT 40 min; read-out: OGG1/APEX IC50", "how_it_was_run": "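His-hOGG1 (12-323, E. coli) at 1 nM with 2 nM hAPE1/APEX1, preincubated 20 min RT with compound. Then 6 nM 8-oxo-dG dsDNA substrate added, 40 min at RT in Tris pH 7.5, 100 mM KCl. TAMRA fluorescence (Ex520/Em600) converted to % inhibition vs controls; IC50 from 3-parameter fit of 10-point curve.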", "units": {"IC50": "µM"}}
{"smiles": "COc1cc(NC(=O)[C@H]2CC[C@@H](N3Cc4c(C)cccc4C3=O)CC2)ccc1C", "note": "[Example 153, (1s,4s)-N-(3-Methoxy-4-methylphenyl)-4-(4-methyl-1-oxoisoindolin-2-yl)cyclohexanecarboxamide]", "IC50": "0.1 to 1"}
{"smiles": "CCc1ccc(NC(=O)[C@H]2CC[C@@H](N3Cc4c(C)cccc4C3=O)CC2)cc1C#N", "note": "[Example 128, (1s,4s)-N-(3-Cyano-4-ethylphenyl)-4-(4-methyl-1-oxoisoindolin-2-yl)cyclohexane-1-carboxamide]", "IC50": "0.1 to 1"}
{"smiles": "COc1cc(NC(=O)[C@H]2CC[C@@H](N3Cc4c(O)cccc4C3=O)CC2)ccc1C", "note": "[Example 197, (1s,4s)-4-(4-Hydroxy-1-oxoisoindolin-2-yl)-N-(3-methoxy-4-methylphenyl)cyclohexanecarboxamide]", "IC50": "1 to 10"}
{"smiles": "COc1cc(NC(=O)[C@H]2CC[C@@H](N3Cc4c(ccc(OCCN5CCOCC5)c4C)NC3=O)CC2)ccc1C", "note": "[Example 50, (1s,4s)-N-(3-Methoxy-4-methylphenyl)-4-(5-methyl-6-(2-morpholinoethoxy)-2-oxo-1,2-dihydroquinazolin-3(4H)-yl)cyclohexanecarboxamide]", "IC50": "1 to 10"}
{"smiles": "COc1cc(NC(=O)[C@H]2CC[C@@H](N3Cc4c(Br)cc(NCC5CCCN5)cc4C3=O)CC2)ccc1C", "note": "(stereo partly shown) [Example 173, (1s,4s)-4-(4-Bromo-1-oxo-6-(pyrrolidin-2-ylmethylamino)isoindolin-2-yl)-N-(3-methoxy-4-methylphenyl)cyclohexanecarboxamide]", "IC50": "< 0.1"}
{"smiles": "Cc1cccc2c1CN([C@H]1CC[C@@H](C(=O)Nc3nc(C)c(C)s3)CC1)C2=O", "note": "[Example 240, (1s,4s)-N-(4,5-Dimethylthiazol-2-yl)-4-(4-methyl-1-oxoisoindolin-2-yl)cyclohexanecarboxamide]", "IC50": "> 10"}
{"smiles": "COc1cc(NC(=O)[C@H]2CC[C@@H](N3Cc4c(C)ccc(C)c4NC3=O)CC2)ccc1C", "note": "[Example 25, (1s,4s)-4-(5,8-Dimethyl-2-oxo-1,2-dihydroquinazolin-3(4H)-yl)-N-(3-methoxy-4-methylphenyl)cyclohexanecarboxamide]", "IC50": "< 0.1"}
{"smiles": "Cc1ccc(NC(=O)[C@H]2CC[C@@H](N3Cc4c(C)cccc4C3=O)CC2)cc1CO", "note": "[Example 126, (1s,4s)-N-(3-(Hydroxymethyl)-4-methylphenyl)-4-(4-methyl-1-oxoisoindolin-2-yl)cyclohexane-1-carboxamide]", "IC50": "1 to 10"}
{"smiles": "COc1cc(NC(=O)[C@H]2CC[C@@H](N3Cc4c(Br)cccc4NC3=O)CC2)ccc1C", "note": "[Example 66, (1s,4s)-4-(5-bromo-2-oxo-1,2-dihydroquinazolin-3(4H)-yl)-N-(3-methoxy-4-methylphenyl)cyclohexanecarboxamide]", "IC50": "0.1 to 1"}
{"smiles": "COc1cc(NC(=O)[C@H]2CC[C@@H](N3Cc4c(Br)cc(NCCCN(C)C)cc4C3=O)CC2)ccc1C", "note": "[Example 205, (1s,4s)-4-(4-Bromo-6-(3-(dimethylamino)propylamino)-1-oxoisoindolin-2-yl)-N-(3-methoxy-4-methylphenyl)cyclohexanecarboxamide]", "IC50": "< 0.1"}
{"smiles": "O=C1c2cccc(Br)c2CN1[C@H]1CC[C@@H](C(=O)Nc2ccc3c(c2)OC(F)(F)O3)CC1", "note": "[Example 186, (1s,4s)-4-(4-Bromo-1-oxoisoindolin-2-yl)-N-(2,2-difluorobenzo[d][1,3]dioxol-5-yl)cyclohexanecarboxamide]", "IC50": "> 10"}
{"smiles": "COc1cc(NC(=O)[C@H]2CC[C@@H](N3Cc4c(ccc(OC)c4C)NC3=O)CC2)ccc1C", "note": "[Example 51, (1s,4s)-N-(3-Methoxy-4-methylphenyl)-4-(6-methoxy-5-methyl-2-oxo-1,2-dihydroquinazolin-3(4H)-yl)cyclohexanecarboxamide]", "IC50": "0.1 to 1"}
{"smiles": "COc1cc(NC(=O)[C@H]2CC[C@@H](N3Cc4c(OC)cccc4C3=O)CC2)ccc1C", "note": "[Example 161, (1s,4s)-4-(4-Methoxy-1-oxoisoindolin-2-yl)-N-(3-methoxy-4-methylphenyl)cyclohexanecarboxamide]", "IC50": "1 to 10"}
{"smiles": "COc1cc(NC(=O)[C@H]2CC[C@@H](N3Cc4c(Cl)cccc4N(C)C3=O)CC2)ccc1C", "note": "[Example 73, (1s,4s)-4-(5-chloro-1-methyl-2-oxo-1,2-dihydroquinazolin-3(4H)-yl)-N-(3-methoxy-4-methylphenyl)cyclohexanecarboxamide]", "IC50": "0.1 to 1"}
{"smiles": "COc1ccc(NC(=O)[C@H]2CC[C@@H](N3Cc4c(C)cccc4C3=O)CC2)c(F)c1", "note": "[Example 242, (1s,4s)-N-(2-Fluoro-4-methoxyphenyl)-4-(4-methyl-1-oxoisoindolin-2-yl)cyclohexanecarboxamide]", "IC50": "1 to 10"}
{"smiles": "COc1cc(NC(=O)[C@H]2CC[C@@H](N3Cc4c(C)cc(OCC5(O)CNC5)cc4C3=O)CC2)ccc1C", "note": "[Example 138, (1s,4s)-4-(6-((3-Hydroxyazetidin-3-yl)methoxy)-4-methyl-1-oxoisoindolin-2-yl)-N-(3-methoxy-4-methylphenyl)cyclohexanecarboxamide]", "IC50": "< 0.1"}
{"smiles": "Cc1cccc2c1CN([C@H]1CC[C@@H](C(=O)Nc3ccc4oncc4c3)CC1)C(=O)N2", "note": "[Example 114, (1s,4s)-N-(benzo[d]isoxazol-5-yl)-4-(5-methyl-2-oxo-1,2-dihydroquinazolin-3(4H)-yl)cyclohexanecarboxamide]", "IC50": "1 to 10"}
{"smiles": "COc1cc(NC(=O)[C@H]2CC[C@@H](N3Cc4c(Br)ccnc4C3=O)CC2)ccc1C", "note": "[Example 168, (1s,4s)-4-(4-Bromo-7-oxo-5H-pyrrolo[3,4-b]pyridin-6 (7H)-yl)-N-(3-methoxy-4-methylphenyl)cyclohexanecarboxamide]", "IC50": "0.1 to 1"}
{"smiles": "COc1cc(NC(=O)[C@H]2CC[C@@H](N3Cc4c(C)cccc4C3=O)CC2)ccn1", "note": "[Example 234, (1s,4s)-N-(2-Methoxypyridin-4-yl)-4-(4-methyl-1-oxoisoindolin-2-yl)cyclohexanecarboxamide]", "IC50": "> 10"}
{"smiles": "COc1cc(NC(=O)[C@H]2CC[C@@H](N3Cc4c(C)cc(CNC(C)=O)cc4NC3=O)CC2)ccc1C", "note": "[Example 27, (1s,4s)-4-(7-(Acetamidomethyl)-5-methyl-2-oxo-1,2-dihydroquinazolin-3(4H)-yl)-N-(3-methoxy-4-methylphenyl)cyclohexanecarboxamide]", "IC50": "< 0.1"}
{"smiles": "COc1cc(NC(=O)[C@H]2CC[C@@H](N3Cc4c(C)ccc(CN(C)C)c4NC3=O)CC2)ccc1C", "note": "[Example 52, (1s,4s)-4-(8-((Dimethylamino)methyl)-5-methyl-2-oxo-1,2-dihydroquinazolin-3(4H)-yl)-N-(3-methoxy-4-methylphenyl)cyclohexanecarboxamide]", "IC50": "< 0.1"}
{"smiles": "COc1cc(NC(=O)[C@H]2CC[C@@H](N3Cc4c(Br)cc(NC(=O)CN5CCC5)cc4C3=O)CC2)ccc1C", "note": "[Example 200, (1s,4s)-4-(6-(2-(Azetidin-1-yl)acetamido)-4-bromo-1-oxoisoindolin-2-yl)-N-(3-methoxy-4-methylphenyl)cyclohexanecarboxamide]", "IC50": "0.1 to 1"}
{"smiles": "COc1cc(NC(=O)[C@H]2CC[C@@H](N3Cc4c(C)ccc(N5CC(C)(C#N)C5)c4NC3=O)CC2)ccc1C", "note": "[Example 34, (1s,4s)-4-(8-(3-Cyano-3-methylazetidin-1-yl)-5-methyl-2-oxo-1,2-dihydroquinazolin-3(4H)-yl)-N-(3-methoxy-4-methylphenyl)cyclohexanecarboxamide]", "IC50": "0.1 to 1"}
{"smiles": "COc1cc(NC(=O)[C@H]2CC[C@@H](N3Cc4c(C)cc(OCCN(C)C)cc4C3=O)CC2)ccc1C", "note": "[Example 209, (1s,4s)-4-(6-(2-(Dimethylamino)ethoxy)-4-methyl-1-oxoisoindolin-2-yl)-N-(3-methoxy-4-methylphenyl)cyclohexanecarboxamide]", "IC50": "< 0.1"}
{"smiles": "COc1cc(NC(=O)[C@H]2CC[C@@H](n3[nH]c4c(Br)cccc4c3=O)CC2)ccc1C", "note": "(single isomer, unassigned) [Example 160, (1s,4s)-4-(7-Bromo-3-oxo-1H-indazol-2(3H)-yl)-N-(3-methoxy-4-methylphenyl)cyclohexanecarboxamide]", "IC50": "0.1 to 1"}
{"smiles": "COc1cc(NC(=O)[C@H]2CC[C@@H](N3Cc4c(C)ccc(Br)c4NC3=O)CC2)ccc1C", "note": "[Example 62, (1s,4s)-4-(8-Bromo-5-methyl-2-oxo-1,2-dihydroquinazolin-3(4H)-yl)-N-(3-methoxy-4-methylphenyl)cyclohexanecarboxamide]", "IC50": "< 0.1"}
{"smiles": "COc1cc(NC(=O)[C@H]2CC[C@@H](N3Cc4c(C)cccc4C3=O)CC2)ccc1C(F)(F)F", "note": "[Example 258, (1s,4s)-N-(3-Methoxy-4-(trifluoromethyl)phenyl)-4-(4-methyl-1-oxoisoindolin-2-yl)cyclohexanecarboxamide]", "IC50": "0.1 to 1"}
{"smiles": "COc1cc(NC(=O)[C@H]2CC[C@@H](N3Cc4c(C)cccc4C3=O)CC2)ccc1CO", "note": "[Example 145, (1s,4s)-N-(4-(Hydroxymethyl)-3-methoxyphenyl)-4-(4-methyl-1-oxoisoindolin-2-yl)cyclohexanecarboxamide]", "IC50": "1 to 10"}
{"smiles": "COc1cc(NC(=O)[C@H]2CC[C@@H](N3Cc4c(C)cccc4C3=O)CC2)ccc1Br", "note": "[Example 120, (1s,4s)-N-(4-Bromo-3-methoxyphenyl)-4-(4-methyl-1-oxoisoindolin-2-yl)cyclohexane-1-carboxamide]", "IC50": "0.1 to 1"}
{"smiles": "Cc1ccc(NC(=O)[C@H]2CC[C@@H](N3Cc4c(C)cccc4C3=O)CC2)cc1C#N", "note": "[Example 254, (1s,4s)-N-(3-Cyano-4-methylphenyl)-4-(4-methyl-1-oxoisoindolin-2-yl)cyclohexanecarboxamide]", "IC50": "0.1 to 1"}
{"smiles": "COc1cc(NC(=O)[C@H]2CC[C@@H](N3Cc4c(cccc4OC)NC3=O)CC2)ccc1C", "note": "[Example 71, (1s,4s)-4-(5-methoxy-2-oxo-1,2-dihydroquinazolin-3(4H)-yl)-N-(3-methoxy-4-methylphenyl)cyclohexanecarboxamide]", "IC50": "1 to 10"}
